{"source": "patent US12251361B2", "about": "“Solutions for oral dosage” (LIQMEDS WORLDWIDE LIMITED, priority 2019, dated 2025)", "origin": "cited, not measured here"}
{"smiles": "CN(C)CCC=C1c2ccccc2CCc2ccccc21.Cl", "note": "[Amitriptyline HCl, 3-(10,11-dihydro-5H-dibenzo[a,d]cycloheptene-5-ylidene)-N,N-dimethyl-1-propanamine hydrochloride]", "values": [{"measurement": "Solubility in water", "result": "freely soluble"}]}
